According to patent US20170002313A1, “COMPOSITIONS AND METHODS OF OBTAINING AND USING ENDODERM AND HEPATOCYTE CELLS” (Genentech Inc., priority 2012, published 2017):

What was measured:
phosphorylated mTOR = assay: Phospho imaging assay (immunofluorescence); assay type: cell-based, human; conditions: 60 min; treated versus untreated cells, fluorescence intensity
Description: (§1) The effect of each compound on the PI3K/AKT/MTOR pathway was evaluated in two ways: via a kinase profile (FIG. 23) and via phospho imaging assays (i.e., immunofluorescence assays using antibodies specific for the phosphorylated form of mTOR or AKT). In vitro kinase profiling provided percent inhibition for numerous targets within the PI3K cell signaling pathway, and cell-based imaging assays were performed to directly visualize the effect of each compound on phosphorylated Akt and phosphorylated mTOR in the cell system used for differentiation.
(§2) In column 2 of Table 6, the PI3K alpha_MTOR score reflects the ability of a compound to inhibit the phosphorylation of PI3K alpha and mTOR, where + indicates minimal inhibition, and +++ indicates maximal inhibition. In column 3 of Table 6, the score indicates the ratio of phosphorylated mTOR (as measured by fluorescence intensity) in cells treated with a compound and the phosphorylated mTOR (as measured by fluorescence intensity) in cells that were not treated with the compound. In column 4 of Table 6, the score indicates the ratio of phosphorylated AKT (as measured by fluorescence intensity) in cells treated with a compound and the phosphorylated AKT (as measured by fluorescence intensity) in cells that were not treated with the compound. A reported effect of AKT inhibitors is an increase in phosphorylated AKT.

phosphorylated AKT = assay: Phospho imaging assay (immunofluorescence); assay type: cell-based, human; conditions: 60 min; treated versus untreated cells, fluorescence intensity
Description: as §1, §2

mTOR = mTOR (Homo sapiens, UniProt P42345); assay: In vitro kinase profile, PI3K alpha_MTOR score; assay type: biochemical
Description: as §1, §2

[1] = tested on: human embryonic stem cells (hESC); assay: Endoderm differentiation of hESC with small-molecule inhibitors, flow cytometry of endoderm markers; assay type: cell-based; conditions: Activin A + 750 nM inhibitor, no Wnt3a, 3-day treatment
Excerpt: A variety of cell-type specific markers were used to monitor the differentiation of stem cells into endoderm cells in the flow cytometry, fluorescence imaging, and immunoassay experiments described below. To detect endoderm conversion, hESC-derived cell samples were stained for the expression of SOX17, FoxA2, and CXCR4 proteins. SOX17, FoxA2, and CXCR4 are proteins that are expressed by endoderm cells but not by stem cells. To detect stem cells, cell samples were stained for the expression of OCT4, a protein expressed by stem cells but not by endoderm cells.
Undifferentiated human embryonic stem cells (hES) were maintained at a density of 40,000 cells/cm^2 on qualified matrigel (BD, #354277) in TesR™2 medium ([…]™ Technologies #05860). Cultures were manually passaged twice a week. To prepare for endoderm differentiation, hESC cells were passaged into TesR™2 medium overnight. The following day, the TesR™2 medium was replaced with basal medium (DMEM/F12+Glutamax (Invitrogen, #10565) supplemented with B27 (Invitrogen, #17504-044)). No human embryos were destroyed in the process of obtaining stem cells for these methods. Furthermore, the plurality of stem cells is not obtained by the prior destruction of human embryos.
Unless otherwise noted, basal medium was supplemented with […] human Activin A (Peprotech, #120-14). When indicated, basal medium was also supplemented with an effective amount of, e.g., a growth factor such as […] human Wnt3a (R&D, #5036-WN-010), an isoform-specific P13K inhibitor or an mTOR inhibitor. […]
To prepare the cells for flow cytometry, hESC-derived cells grown under endoderm differentiation conditions were dissociated using Accutase (Innovative Cell technologies, #AT-104). Briefly, the cells were washed once in PBS, incubated with Accutase for 10 minutes at room temperature, pelleted, and washed in cold PBS. The Accutase-dissociated hESC-derived cell samples were stained with anti-CXC4 antibody, anti-SOX17 antibody, or anti-FoxA2 antibody. Additional cell samples were stained with isotype control antibodies (e.g., IgG1 or IgG2).
The cells that were to be stained with anti-CXCR4 antibody were washed once with cold DPBS and then directly stained with mouse anti-human CD184 (CXCR4)-IgG2-PE (BD, #555974) for one hour at 4° C. The cells that were to be stained with anti-SOX17 antibody or anti-FoxA2 antibody were first fixed for 25 minutes at 4° C. in fixation buffer (BD, #554655) and permeabilized for 30 minutes on ice in Perm Buffer III (BD, #554656). Anti-SOX17 staining was performed using a mouse anti-SOX17 IgG1-PE antibody (BD, #561591) at room temperature for 30 minutes. Anti-FoxA2 staining was performed using a mouse anti-human FoxA2 IgG1 (BD, #561589) under the same conditions. A control sample of cells were fixed as described above and stained with either an anti-IgG1-PE antibody (BD, #554680) at room temperature for 30 minutes or an anti-IgG2-PE antibody (BD, #55574) for one hour at 4° C.
The antibody-stained hESC-derived cells were then analyzed via flow cytometry using a BD LSRFortessa™ cell analyzer. […] Approximately 1×10^6 cells were analyzed per sample.

PI3K alpha = PI3K alpha (Homo sapiens, UniProt P42336); assay: In vitro kinase profile, PI3K alpha_MTOR score; assay type: biochemical
Sequence of PI3K alpha (P42336 whole entry, species assumed): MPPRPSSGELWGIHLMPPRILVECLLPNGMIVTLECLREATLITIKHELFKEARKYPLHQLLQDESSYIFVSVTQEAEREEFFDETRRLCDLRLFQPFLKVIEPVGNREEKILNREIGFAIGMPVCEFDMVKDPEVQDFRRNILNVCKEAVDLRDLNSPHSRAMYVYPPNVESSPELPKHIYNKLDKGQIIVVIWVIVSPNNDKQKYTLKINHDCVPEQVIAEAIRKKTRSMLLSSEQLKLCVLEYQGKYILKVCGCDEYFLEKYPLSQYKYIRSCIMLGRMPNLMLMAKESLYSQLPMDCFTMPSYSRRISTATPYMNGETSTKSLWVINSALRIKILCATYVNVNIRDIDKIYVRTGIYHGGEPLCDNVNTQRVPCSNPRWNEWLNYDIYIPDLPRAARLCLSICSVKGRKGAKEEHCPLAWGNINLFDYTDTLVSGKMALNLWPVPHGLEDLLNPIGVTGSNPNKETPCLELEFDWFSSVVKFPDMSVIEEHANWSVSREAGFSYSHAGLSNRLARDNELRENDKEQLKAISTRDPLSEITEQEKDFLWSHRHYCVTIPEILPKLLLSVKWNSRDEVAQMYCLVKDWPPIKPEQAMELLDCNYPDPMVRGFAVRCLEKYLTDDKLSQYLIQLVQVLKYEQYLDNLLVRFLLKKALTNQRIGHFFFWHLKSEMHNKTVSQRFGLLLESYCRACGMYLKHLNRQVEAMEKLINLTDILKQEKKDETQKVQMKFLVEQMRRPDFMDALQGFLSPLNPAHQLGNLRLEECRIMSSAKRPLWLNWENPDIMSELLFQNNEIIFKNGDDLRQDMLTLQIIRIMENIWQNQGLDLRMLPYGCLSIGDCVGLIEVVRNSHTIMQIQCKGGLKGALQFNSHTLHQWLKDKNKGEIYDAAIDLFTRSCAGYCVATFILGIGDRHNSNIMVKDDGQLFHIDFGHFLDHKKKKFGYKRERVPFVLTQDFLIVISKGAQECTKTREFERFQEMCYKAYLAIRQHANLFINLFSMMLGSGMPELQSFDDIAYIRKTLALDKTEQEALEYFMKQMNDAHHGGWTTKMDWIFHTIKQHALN
Sequence of PI3K alpha (P27986 whole entry partner, species assumed): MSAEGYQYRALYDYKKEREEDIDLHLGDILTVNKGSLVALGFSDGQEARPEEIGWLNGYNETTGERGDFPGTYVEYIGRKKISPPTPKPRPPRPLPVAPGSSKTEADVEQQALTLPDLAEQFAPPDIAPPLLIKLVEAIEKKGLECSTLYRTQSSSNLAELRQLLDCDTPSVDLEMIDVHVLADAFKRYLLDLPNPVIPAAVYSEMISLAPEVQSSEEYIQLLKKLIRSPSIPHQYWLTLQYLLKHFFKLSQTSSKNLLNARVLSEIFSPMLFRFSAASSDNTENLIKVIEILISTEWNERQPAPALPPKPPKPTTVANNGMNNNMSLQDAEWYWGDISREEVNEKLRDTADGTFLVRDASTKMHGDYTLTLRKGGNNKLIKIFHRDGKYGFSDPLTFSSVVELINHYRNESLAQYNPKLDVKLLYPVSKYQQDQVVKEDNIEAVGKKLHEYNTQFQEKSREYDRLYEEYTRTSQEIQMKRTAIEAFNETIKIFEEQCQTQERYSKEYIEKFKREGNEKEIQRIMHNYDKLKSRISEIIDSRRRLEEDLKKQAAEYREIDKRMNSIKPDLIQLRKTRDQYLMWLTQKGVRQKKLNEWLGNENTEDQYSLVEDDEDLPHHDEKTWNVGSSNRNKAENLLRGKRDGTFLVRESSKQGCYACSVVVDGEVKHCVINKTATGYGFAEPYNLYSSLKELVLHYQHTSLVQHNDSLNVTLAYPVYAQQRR
Description: as §1, §2

[2] = tested on: human embryonic stem cells (hESC); assay: AlphaLISA of SOX17 and OCT4 in hESC-derived cells; assay type: cell-based; conditions: Activin A + 750 nM inhibitor, no Wnt3a, 3-day treatment
Description: To detect OCT4, the cells were washed three times in PBS and lysed with 50 ul AlphaLISA Lysis Buffer (Perkin Elmer, #AL003C). The lysis buffer was added to each cell sample and mixed with the cells five times. The cell samples were then incubated in a plate shaker at room temperature for 15 minutes. 5 μl of the lysate from each sample was then transferred to a 384 well OptiPlate (Perkin Elmer, #6005629). 5 μl of 10 ug/ml anti-rabbit acceptor bead (Perkin Elmer, #AL104M) and […] of 0.2 nM of rabbit anti-OCT4 antibody (Cell Signaling, #2890) was added to each well and incubated for 2 hours at room temperature. Following the incubation, 5 μl of 0.5 nM mouse anti-OCT4 antibody (BD, #611203) and […] of 0.5 nM biotinylated goat anti-mouse antibody (Invitrogen, #B2763) were added to each well and incubated at room temperature for 2 hours. Following the incubation, […] of streptavidin donor beads (Perkin Elmer, #6760002B) were added to each well and incubated for 30 minutes. The OptiPlates were then analyzed using an Envision Multilabel Plate Reader (Perkin Elmer, #2104-0010). All beads and antibodies were diluted as necessary in IAB Buffer (Perkin Elmer, #AL000C)+50 mM NaCl. Four replicate assays were performed.
To detect SOX17, the cells were washed three times in PBS and lysed with 50 ul Roche Complete Lysis Buffer (Roche, #04719956001). The lysis buffer was added to each cell sample and mixed with the cells five times. The cell samples were then incubated in a plate shaker at room temperature for 15 minutes. 5 μl of the lysate from each sample was then transferred to a 384 well OptiPlate (Perkin Elmer, #6005629). 5 μl of 10 ug/ml anti-rabbit acceptor bead (Perkin Elmer, #AL104M) and […] of 1 nM of rabbit anti-SOX17 antibody (Sigma, #AV33271) was added to each well and incubated for 2 hours at room temperature. Following the incubation, 5 μl of 0.5 nM mouse anti-SOX antibody (Sigma, #SAB3300093) and […] of 0.5 nM biotinylated goat anti-mouse antibody (Invitrogen, #B2763) were added to each well and incubated at room temperature for 2 hours. Following the incubation, […] of streptavidin donor beads (Perkin Elmer, #6760002B) were added to each well and incubated for 30 minutes. The OptiPlates were then analyzed using an Envision Multilabel Plate Reader (Perkin Elmer, #2104-0010). All beads and antibodies were diluted as necessary in IAB Buffer (Perkin Elmer, #AL000C) Four replicate assays were performed.
After a 3-day treatment, cells were harvested and stained with anti-SOX17 antibody as described above in preparation for AlphaLISA analysis.

Row | Structure (SMILES) | Avg(Avg (Ph MTOR_60m_%C # Spots)) (phosphorylated mTOR) | Max(Avg (Ph AKT_60min_Intensity)) (phosphorylated AKT) | PI3K alpha_MTOR score: MTOR (mTOR) | endoderm conversion (SOX17, FoxA2, CXCR4 flow cytometry) [1] | PI3K alpha_MTOR score: PI3K alpha (PI3K alpha) | endoderm conversion (SOX17 AlphaLISA) [2]
1 | Clc1ccc(C2(c3ccc(-c4cn[nH]c4)cc3)CCNCC2)cc1 [AT7867] | 73.59 %C | 122.15 |  |  |  | 
2 | COc1ccc(-c2ccc3c(N4CCOC[C@@H]4C)nc(N4CCOC[C@@H]4C)nc3n2)cc1CO [AZD 8055] | 15.8 %C |  | +++ |  |  | 
3 | Cc1c(CN2CCN(C(=O)[C@H](C)O)CC2)sc2c(N3CCOCC3)nc(-c3cnc(N)nc3)nc12 [GDC0980] | 9.99 %C |  |  |  |  | 
4 | CCn1c(-c2nonc2N)nc2c(C#CC(C)(C)O)ncc(OC[C@H]3CCCNC3)c21 [GSK690693] |  |  |  | higher degree of endoderm conversion |  | 
5 | COc1ncc(-c2ccc3nccc(-c4ccnnc4)c3c2)cc1NS(=O)(=O)c1ccc(F)cc1F [GSK2126458] | 15.55 %C |  | PI3K alpha+++_MTOR+++ |  | PI3K alpha+++_MTOR+++ | 
6 | COc1ccc(-c2ccc3c(N4CCOCC4)nc(N4C[C@@H](C)O[C@@H](C)C4)nc3n2)cc1CO [KU0063794] | 25.83 %C |  | +++ | higher degree of endoderm conversion | + | better endoderm conversion than cells cultured in Activin A alone or cells cultured with an Akt inhibitor
7 | Cn1c(=O)n(-c2ccc(C(C)(C)C#N)cc2)c2c3cc(-c4cnc5ccccc5c4)ccc3ncc21 [NVPBEZ235] | 43.44 %C | 88.3 |  |  |  | 
8 | Nc1cc(C(F)(F)F)c(-c2cc(N3CCOCC3)nc(N3CCOCC3)n2)cn1 [NVPBKM120] | 60.28 %C |  | PI3K alpha+++_MTOR+++ |  | PI3K alpha+++_MTOR+++ | 
9 | Oc1cccc(-c2nc(N3CCOCC3)c3oc4ncccc4c3n2)c1 [PI103] | 5.59 %C |  | PI3K alpha+++_MTOR+++ |  | PI3K alpha+++_MTOR+++ | 
10 | COc1ccc2c(c1OC)N=C(NC(=O)c1cccnc1)N1CCN=C21 [PIK90] | 42.17 %C | 86.72 |  |  | +++ | 
11 | CN(C)C1CCN(C(=O)c2ccc(NC(=O)Nc3ccc(-c4nc(N5CCOCC5)nc(N5CCOCC5)n4)cc3)cc2)CC1 [PKI 587] | 77.99 %C |  | +++ |  |  | 
12 | CO[C@H]1C[C@@H]2CC[C@@H](C)[C@@](O)(O2)C(=O)C(=O)N2CCCC[C@H]2C(=O)O[C@H]([C@H](C)C[C@@H]2CC[C@@H](O)[C@H](OC)C2)CC(=O)[C@H](C)/C=C(\C)[C@@H](O)[C@@H](OC)C(=O)[C@H](C)C[C@H](C)/C=C/C=C/C=C/1C [Rapamycin] | 57.77 %C |  |  |  |  | 
13 | CO[C@H]1C[C@@H]2CC[C@@H](C)[C@@](O)(O2)C(=O)C(=O)N2CCCC[C@H]2C(=O)O[C@H]([C@H](C)C[C@@H]2CC[C@@H](OC(=O)C(C)(CO)CO)[C@H](OC)C2)CC(=O)[C@H](C)/C=C(\C)[C@@H](O)[C@@H](OC)C(=O)[C@H](C)C[C@H](C)/C=C/C=C/C=C/1C [Temsirolimus] | 42.12 %C |  |  |  |  | 
14 | CCC(=O)N1CCN(c2ccc(-n3c(=O)ccc4cnc5ccc(-c6cnc7ccccc7c6)cc5c43)cc2C(F)(F)F)CC1 [Torin1] | 66.6 %C | 89.48 |  |  |  | 
15 | COC(=O)Nc1ccc(-c2nc(N3CCOCC3)c3cnn(C4CCN(C(=O)OC)CC4)c3n2)cc1 [WYE - 354] | 10.49 %C | 89.35 | +++ | higher degree of endoderm conversion |  | better endoderm conversion than cells cultured in Activin A alone or cells cultured with an Akt inhibitor
16 | COC(=O)Nc1ccc(-c2nc(N3CCOCC3)c3cnn(C4CCN(Cc5cccnc5)CC4)c3n2)cc1 [WYE-687] | 12.81 %C | 86.65 | +++ |  | + | 
17 | CNC(=O)Nc1ccc(-c2nc(N3CC4CCC(C3)O4)c3cnn(C4CCC5(CC4)OCCO5)c3n2)cc1 [WYE-125132] | 17.55 %C |  | +++ |  |  | 
18 | COC[C@H]1OC(=O)c2coc3c2[C@@]1(C)C1=C(C3=O)[C@@H]2CCC(=O)[C@@]2(C)C[C@H]1OC(C)=O [Wortmannin] | 10.47 %C |  |  |  |  | 
